# According to ChEMBL document CHEMBL5728071, “Optically active azabicyclo ring derivative” (2020):
# Target: T1, Menin (Homo sapiens, UniProt O00255)
# T1 sequence (O00255 whole entry): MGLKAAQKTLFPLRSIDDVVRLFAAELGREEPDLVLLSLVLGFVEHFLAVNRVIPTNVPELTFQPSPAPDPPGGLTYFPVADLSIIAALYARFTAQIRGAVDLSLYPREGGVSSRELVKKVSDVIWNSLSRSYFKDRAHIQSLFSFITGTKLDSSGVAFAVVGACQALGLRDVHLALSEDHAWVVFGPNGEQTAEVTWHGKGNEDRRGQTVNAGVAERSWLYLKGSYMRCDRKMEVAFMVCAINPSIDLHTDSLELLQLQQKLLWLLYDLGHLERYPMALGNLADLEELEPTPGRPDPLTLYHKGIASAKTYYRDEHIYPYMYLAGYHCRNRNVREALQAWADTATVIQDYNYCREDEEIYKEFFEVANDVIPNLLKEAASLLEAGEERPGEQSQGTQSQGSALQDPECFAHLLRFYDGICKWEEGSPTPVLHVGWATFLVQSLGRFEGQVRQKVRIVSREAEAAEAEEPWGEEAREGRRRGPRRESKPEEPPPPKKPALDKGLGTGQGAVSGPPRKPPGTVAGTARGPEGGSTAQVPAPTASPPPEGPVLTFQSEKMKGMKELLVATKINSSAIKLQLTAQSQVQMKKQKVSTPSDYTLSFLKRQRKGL
# Test: After the incubation, the signal was detected with RUBYstar (BMG LABTECH).
row,Structure (SMILES),IC50 [nM]
1,C=C1C[C@H]2CC[C@@H]1N[C@@H]2C(=O)N1CCC2(CC1)CN(c1ncncc1Oc1ccc(F)cc1C(=O)N(C(C)C)C(C)C)C2,7.9
2,C=C1C[C@H]2CC[C@@H]1N[C@@H]2C(=O)N1CC2(C1)CN(c1ncncc1Oc1ccc(F)cc1C(=O)N(C(C)C)C(C)C)C2,6.2
